Results reported in patent US9029376B2, “Small molecule inhibitors for the treatment or prevention of dengue virus infection” (Siga Technologies, Inc., priority 2008, dated 2015).
Where two headings read alike, the source gives them in different places.

Columns and labels:
[1] = system: Dengue-2 (Strain New Guinea C); experiment: Dengue-2 viral yield assay in Vero cells; format: cell-based; details: Dengue virus, read-out: Activity (anti-dengue 2 viral activity, EC50)
Method: Compounds that were active in the primary screen were tested for activity in viral yield assays. […] Vero cells in 12-well plates were infected with dengue-2 virus at a multiplicity of infection (MOI) of 0.1, treated with compound (or DMSO as a control), incubated at 37° C., harvested 48 hours post infection and titered on Vero cells as described above. The EC50 was calculated through ExcelFit. Those compounds with activity below 1 μM are indicated with “A”, those with activity between 1 and 10 μM are indicated with “B”, and those with activity between 10 and 25 μM with “C”.

[2] = system: all four serotypes of dengue; experiment: Yield assay against each serotype of dengue virus in vero cells; format: cell-based; details: FIG. 1
Method: Initially, the chemical structures of the hit compounds were examined for chemical tractability. […] Hits that passed this medicinal chemistry filter were evaluated for their potency. Compound potency was determined by evaluating inhibitory activity across a broad range of concentrations. Nonlinear regression was used to generate best-fit inhibition curves and to calculate the 50% effective concentration (EC50). The selectivity or specificity of a given compound is typically expressed as a ratio of its cytotoxicity to its biological effect. A cell proliferation assay is used to calculate a 50% cytotoxicity concentration (CC50); the ratio of this value to the EC50 is referred to as the therapeutic index (T.I.=CC50/EC50). Two types of assays have been used to determine cytotoxicity, both of which are standard methods for quantitating the reductase activity produced in metabolically active cells (30). One is a colorimetric method that measures the reduction of 3-(4,5-dimethylthiazol-2-yl)-2,5-diphenyl-tetrazolium bromide (MTT), and the other uses fluorimetry to measure the reduction of resazurin (Alamar Blue). […] Verification that these compounds act against each of the four serotypes of dengue was done with yield assays carried out at several drug concentrations, and the titer determined for each. […]

[3] = Cytotoxicity (cell proliferation assay, MTT or Alamar Blue); format: cell-based; details: flag printed in the Activity column of Table 1
Method: Initially, the chemical structures of the hit compounds were examined for chemical tractability. […] Hits that passed this medicinal chemistry filter were evaluated for their potency. Compound potency was determined by evaluating inhibitory activity across a broad range of concentrations. Nonlinear regression was used to generate best-fit inhibition curves and to calculate the 50% effective concentration (EC50). The selectivity or specificity of a given compound is typically expressed as a ratio of its cytotoxicity to its biological effect. A cell proliferation assay is used to calculate a 50% cytotoxicity concentration (CC50); the ratio of this value to the EC50 is referred to as the therapeutic index (T.I.=CC50/EC50). Two types of assays have been used to determine cytotoxicity, both of which are standard methods for quantitating the reductase activity produced in metabolically active cells (30). One is a colorimetric method that measures the reduction of 3-(4,5-dimethylthiazol-2-yl)-2,5-diphenyl-tetrazolium bromide (MTT), and the other uses fluorimetry to measure the reduction of resazurin (Alamar Blue). […] Verification that these compounds act against each of the four serotypes of dengue was done with yield assays carried out at several drug concentrations, and the titer determined for each.

[4] = system: dengue; details: cited from earlier work
[5] = system: dengue; details: mouse model; cited from earlier work
[6] = Dengue-2 strain New Guinea C, Vero cells, MOI 0.1, harvested 48 hours post infection, viral yield

SMILES | EC50 [1, 6] [µM] | other results
NC(=O)C1(N2CCCCC2)CCN(C(=O)CSc2nc3ccccc3o2)CC1 [Compound 3, 1′-[2-(Benzooxazol-2-ylsulfanyl)-acetyl]-[1,4′]bipiperidinyl-4′-carboxylic acid amide] | – | EC50 ([1]; Vero, 48 h): < 1 µM; activity against dengue serotypes [2]: activity against all four serotypes of dengue
COc1ccccc1C(=O)C1CCCN(C(=O)CSc2nc3cc(C)ccc3[nH]2)C1 (centres unmarked) [Compound 12, 1-[3-(2-Methoxy-benzoyl)-piperidin-1-yl]-2-(5-methyl-1H-benzoimidazol-2-ylsulfanyl)-ethanone] | 1 to 10 | toxic (flag beside activity class) [3]: toxic
O=C1CC(Sc2nc3ccccc3s2)C(=O)N1Cc1ccccc1 (centres unmarked) [Compound 4, 3-(Benzothiazol-2-ylsulfanyl)-1-benzyl-pyrrolidine-2,5-dione] | < 1 | toxic (flag beside activity class) [3]: toxic
NC(=O)C1(N2CCCCC2)CCN(C(=O)CSc2nc3ccccc3[nH]2)CC1 [Compound 70, 1′-[2-(1H-Benzoimidazol-2-ylsulfanyl)-acetyl]-[1,4′]bipiperidinyl-4′-carboxylic acid amide] | – | EC50 ([1]; Vero, 48 h): > 25 µM
Nc1ccc2nc(SCC(=O)Nc3ccc4nc(SCC(=O)N5CCOCC5)sc4c3)sc2c1 [Compound 31, 2-(6-Amino-benzothiazol-2-ylsulfanyl)-N-[2-(2-morpholin-4-yl-2-oxo-ethylsulfanyl)-benzothiazol-6-yl]-acetamide] | > 25 | –
O=C(CCc1ccccc1)Nc1ccc2nc(SCC(=O)N3CCOCC3)sc2c1 [Compound 1, N-[2-(2-Morpholin-4-yl-2-oxo-ethylsulfanyl)-benzothiazol-6-yl]-3-phenyl-propionamide] | < 1 | –
COc1ccc(C(=O)Nc2ccc3nc(SCC(=O)N4CCOCC4)sc3c2)cc1OC [Compound 64, 3,4-Dimethoxy-N-[2-(2-morpholin-4-yl-2-oxo-ethylsulfanyl)-benzothiazol-6-yl]-benzamide] | > 25 | –
O=C(CSc1nc2ccc([N+](=O)[O-])cc2s1)N1CCN(c2ccccc2)CC1 [Compound 52, 2-(6-Nitro-benzothiazol-2-ylsulfanyl)-1-(4-phenyl-piperazin-1-yl)-ethanone] | > 25 | –
O=C(CSc1nc2ccc(/N=C/c3ccc(F)cc3)cc2s1)N1CCOCC1 [Compound 26, 2-(6-{[1-(4-Fluoro-phenyl)-meth-(E)-ylidene]-amino}-benzothiazol-2-ylsulfanyl)-1-morpholin-4-yl-ethanone] | > 25 | –
Nc1ccc2nc(SCC(=O)N3CCN(c4ccc(Cl)cc4)CC3)sc2c1 [Compound 77, 2-(6-Amino-benzothiazol-2-ylsulfanyl)-1-[4-(4-chloro-phenyl)-piperazin-1-yl]-ethanone] | > 25 | –
CCCCOc1ccc(C(=O)Nc2ccc3nc(SCC(=O)N4CCOCC4)sc3c2)cc1 [Compound 22, 4-Butoxy-N-[2-(2-morpholin-4-yl-2-oxo-ethylsulfanyl)-benzothiazol-6-yl]-benzamide] | > 25 | –
Cn1ccnc1SCC(=O)Nc1ccc2nc(SCC(=O)N3CCOCC3)sc2c1 [Compound 33, 2-(1-Methyl-1H-imidazol-2-ylsulfanyl)-N-[2-(2-morpholin-4-yl-2-oxo-ethylsulfanyl)-benzothiazol-6-yl]-acetamide] | > 25 | –
O=C(CSc1nc2ccccc2[nH]1)N1CCOCC1 [Compound 42, 2-(1H-Benzoimidazol-2-ylsulfanyl)-1-morpholin-4-yl-ethanone] | > 25 | –
CCOc1ccc2nc(SCC(=O)N3CCN(c4nc5ccccc5s4)CC3)sc2c1 [Compound 39, 1-(4-Benzothiazol-2-yl-piperazin-1-yl)-2-(6-ethoxy-benzothiazol-2-ylsulfanyl)-ethanone] | > 25 | –
O=C(CSc1nnc(CSc2nc3ccccc3s2)o1)NC1CCCCC1 [Compound 53, 2-[5-(Benzothiazol-2-ylsulfanylmethyl)-[1,3,4]oxadiazol-2-ylsulfanyl]-N-cyclohexyl-acetamide] | – | EC50 ([1]; Vero, 48 h): > 25 µM
O=C(CSc1nc2ccc(/N=C/c3ccc(I)cc3)cc2s1)N1CCOCC1 [Compound 25, 2-(6-{[1-(4-Iodo-phenyl)-meth-(E)-ylidene]-amino}-benzothiazol-2-ylsulfanyl)-1-morpholin-4-yl-ethanone] | > 25 | –
Nc1ccc2nc(SCC(=O)N3CCOCC3)sc2c1 [Compound 16, 2-(6-Amino-benzothiazol-2-ylsulfanyl)-1-morpholin-4-yl-ethanone] | – | EC50 ([1]; Vero, 48 h): > 25 µM
CCN(CC)C(=O)CSc1nc2ccc(N3C(=O)c4ccccc4C3=O)cc2s1 [Compound 30, 2-[6-(1,3-Dioxo-1,3-dihydro-isoindol-2-yl)-benzothiazol-2-ylsulfanyl]-N,N-diethyl-acetamide] | > 25 | –
CC(=O)Nc1ccc2nc(SCC(=O)N3CCN(c4ccccc4)CC3)sc2c1 [Compound 57, N-{2-[2-Oxo-2-(4-phenyl-piperazin-1-yl)-ethylsulfanyl]-benzothiazol-6-yl}-acetamide] | > 25 | –
NC(=O)c1ncn([C@@H]2O[C@H](CO)[C@@H](O)[C@H]2O)n1 [ribavirin] | – | adverse effects induced ([4]; animal model not specified in the sentence (mouse or rhesus monkey)): induced anemia and thrombocytosis; protection against dengue ([4]; rhesus monkey model): did not show protection against dengue; protection against dengue [5]: did not show protection against dengue
O=C(Nc1ccc2nc(SCC(=O)N3CCOCC3)sc2c1)C1CCCCC1 [Compound 32, Cyclohexanecarboxylic acid [2-(2-morpholin-4-yl-2-oxo-ethylsulfanyl)-benzothiazol-6-yl]-amide] | > 25 | –
O=C(CSc1nc2ccccc2s1)Nc1ccc2nc(SCC(=O)N3CCOCC3)sc2c1 [Compound 34, 2-(Benzothiazol-2-ylsulfanyl)-N-[2-(2-morpholin-4-yl-2-oxo-ethylsulfanyl)-benzothiazol-6-yl]-acetamide] | > 25 | –
O=C(CSc1nc2ccc(/N=C/c3ccc(Br)cc3)cc2s1)N1CCOCC1 [Compound 17, 2-(6-{[1-(4-Bromo-phenyl)-meth-(E)-ylidene]-amino}-benzothiazol-2-ylsulfanyl)-1-morpholin-4-yl-ethanone] | > 25 | –
O=C(Nc1ccc2nc(SCC(=O)N3CCOCC3)sc2c1)c1ccc(Cl)cc1Cl [Compound 6, 2,4-Dichloro-N-[2-(2-morpholin-4-yl-2-oxo-ethylsulfanyl)-benzothiazol-6-yl]-benzamide] | – | EC50 ([1]; Vero, 48 h): 1 to 10 µM
